Results as given in patent publication US20230391841A1, “MACROCYCLIC PEPTIDES” (Herantis Pharma OYJ, priority 2019, published 2023).
Bridge positions count the residues as written; N and C are the ends. Peptide text beside a SMILES is read from it.

Tested on: 3D in vitro model of blood-brain barrier
Test: Permeation in a 3D in vitro model of blood-brain barrier
Format: in vitro ADME, human endothelial cells, rat astrocytes and cortical neurons
Details: 500 nM, 2 h
Protocol: Due to the interest of developing CDNF- and MANF-derived peptides for treatment of CNS diseases with peripheral route of administration, and the fact that macrocyclization can improve cell-penetration and distribution properties of peptides, the ability of the compounds to pass the blood-brain barrier was tested in an established in vitro model of the blood-brain barrier. For this purpose, macrocyclic and linear compounds were incubated at 500 nM for 2 h in a two-compartment in vitro blood-brain barrier model (n=4) followed by sample collection is and LC-MS/MS analysis.
Primary culture of astrocytes. Rat astrocytes were prepared from a E15 embryos. Briefly, pregnant female rats (Wistar, Janvier Labs) of 15 days of gestation were deeply anesthetized in a (CO2 chamber) and then killed by cervical dislocation. Fetuses were collected and immediately placed in ice-cold L15 Leibovitz medium with a 2% penicillin (10,000 U/mL) and streptomycin (10 mg/mL) solution (PS) and 1% bovine serum albumin (BSA). Full brains were treated for 20 min at 37° C. with a trypsin- EDTA solution at a final concentration of 0.05% trypsin and 0.02% EDTA. Dissociated cells were cultured in DMEM 10% fetal calf serum. Purified astrocytes were used at passage 4 (P4).
Culture of human endothelial cells. A vial of HBMEC (Primary Human Brain Microvascular Endothelial Cells, ACBRI 376) was used at a specific passage 8 (P8).
Primary culture of cortical neurons. Rat cortical neurons were cultured as described by Callizot et al., 2013 with modification. Briefly, pregnant female rats (Wistar, Janvier Labs) of […] were deeply anesthetized in a CO2 chamber and then killed by cervical io dislocation. Fetuses were collected and immediately placed in ice-cold L15 Leibovitz medium with a 2% penicillin (10,000 U/mL) and streptomycin (10 mg/mL) solution (PS) and 1% bovine serum albumin (BSA). Cortices were treated for 20 min at 37° C. with a trypsin-EDTA solution at a final concentration of 0.05% trypsin and 0.02% EDTA. The dissociation was stopped by addition of Dulbecco's modified Eagle's medium (DMEM) with 4.5 g/L of glucose, containing is DNAse I grade II (final concentration 0.5 mg/m L) and 10% fetal calf serum (FCS). Cells were mechanically dissociated by three forced passages through the tip of a 10-m1 pipette. Cells were then centrifuged at 515×g for 10 min at 4° C. The pellet resuspended in a defined culture medium consisting of Neurobasal medium with a 2% solution of B27 supplement, 2 mmol/L of L-glutamine, 2% of PS solution, 10 ng/mL of brain-derived neurotrophic factor (BDNF). Viable cells were counted in a Neubauer cytometer, using the trypan blue exclusion test. The cortical neurons were seeded in the bottom of well pre-coated with poly-L-lysine at a density of 255,000 per well in 24-well plate with insert and cultured at 37° C. in an air (95%)-CO2 (5%) incubator. The culture medium was changed every other day.
Co-Culture of endothelial cells, astrocytes and primary cortical neurons. The procedure was performed as previously published (Xue et al., 2013 with modifications, Callizot et al., 2017). Briefly, on day 0, purified astrocytes (P4) were rapidly thawed in a water bath at 37° C. The cells were immediately put in DMEM containing 10% of FCS. Cell suspension was centrifuged at 515×g for 5 min at 4° C. and the pellets were suspended in DMEM F12 containing 10% of FCS. Cells were seeded in the outer side of the insert membrane (PET, 1 μm) at the density of 45,000 cells per insert and cultured at 37° C. in an air (95%)-CO2 (5%) incubator. Thirty-six (36) hours after the astrocytes seeding, HBMEC (P8) were rapidly thawed in a water bath at 37° C. and immediately put in DMEM containing 10% of FCS. Cell suspension was centrifuged at 515×g for 5 min at 4° C. and the pellets were suspended in EGM-2 bullet kit containing 5% of FCS, 1% of PS solution, 1.4 μM of Hydrocortisone, 5 μg/mL of acid ascorbic, 1% of lipid mixture, 10 mM of HEPES, 1 ng/mL of bFGF. […]

Row | Compound | ability to pass through the in vitro blood-brain barrier as compared to linear counterpart
1 | CC[C@H](C)[C@@H]1NC(=O)[C@H](CCC(N)=O)NC(=O)[C@H](CCCCN)NC(=O)[C@H](CC(C)C)NC(=O)[C@H](CCC(=O)O)NC(=O)[C@H](C)NC(=O)[C@H](C(C)C)NC(=O)[C@H](CCCNC(=N)N)NC(=O)[C@H](CCSC)NC(=O)[C@H](CCCCN)NC(=O)[C@H](CCCNC(=N)N)NC(=O)[C@H](CC(C)C)NC(=O)[C@H](CC(=O)O)NC(=O)[C@H](C(C)C)NC(=O)[C@H](CCC(=O)O)NC(=O)[C@H](C)NC(=O)[C@@H]2CSSC[C@H](NC(=O)[C@H](CCC(=O)O)NC(=O)[C@H](CCC(=O)O)NC(=O)CNC(=O)[C@H](Cc3c[nH]c4ccccc34)NC(=O)[C@H](CO)NC(=O)[C@H](Cc3c[nH]cn3)NC(=O)[C@H](CC(C)C)NC1=O)C(=O)N[C@@H](CCCNC(=N)N)C(=O)N[C@@H](C)C(=O)N2 [Compound 2] (cyclo(ACAEVDLRKMRVAELKQILHSWGEECR); disulfide 2-26) | improved ability to pass
2 | C[C@@H]1NC(=O)[C@@H]2CSSC[C@H](NC(=O)[C@H]([C@@H](C)O)NC(=O)[C@H](CCC(=O)O)NC(=O)CNC(=O)[C@H](Cc3c[nH]c4ccccc34)NC(=O)[C@H](CO)NC(=O)[C@H](CCCCN)NC(=O)[C@H](CCC(=O)O)NC1=O)C(=O)N[C@@H](CCCCN)C(=O)NCC(=O)NCC(=O)N2 [Compound 26, WGETCKGGCAEKS] (cyclo(AEKSWGETCKGGC); disulfide 9-13) | improved ability to pass
3 | C[C@@H]1NC(=O)CNC(=O)[C@H](CCCNC(=N)N)NC(=O)[C@@H]2CSSC[C@H](NC1=O)C(=O)N[C@@H](C)C(=O)N[C@@H](CCC(=O)O)C(=O)N[C@@H](CCCCN)C(=O)N[C@@H]([C@@H](C)O)C(=O)N[C@@H](Cc1c[nH]c3ccccc13)C(=O)NCC(=O)N[C@@H](CCC(=O)O)C(=O)N[C@@H](CCC(=O)O)C(=O)N2 [Compound 24, WGEECRGACAEKT] (cyclo(ACAEKTWGEECRG); disulfide 2-11) | improved ability to pass
4 | CC[C@H](C)[C@@H]1NC(=O)[C@H](CCC(N)=O)NC(=O)[C@H](CCCCN)NC(=O)[C@H](CC(C)C)NC(=O)[C@H](CCC(=O)O)NC(=O)[C@H](C)NC(=O)[C@H](C(C)C)NC(=O)[C@H](CCCNC(=N)N)NC(=O)[C@H](CCSC)NC(=O)[C@H](CCCCN)NC(=O)[C@H](CCC(=O)O)NC(=O)[C@H](C)NC(=O)[C@@H]2CSSC[C@H](NC(=O)[C@H](CCC(=O)O)NC(=O)[C@H](CCC(=O)O)NC(=O)CNC(=O)[C@H](Cc3c[nH]c4ccccc34)NC(=O)[C@H](CO)NC(=O)[C@H](Cc3c[nH]cn3)NC(=O)[C@H](CC(C)C)NC1=O)C(=O)N[C@@H](CCCNC(=N)N)C(=O)N[C@@H](C)C(=O)N2 [Compound 6] (cyclo(ACAEKMRVAELKQILHSWGEECR); disulfide 2-22) | improved ability to pass
5 | C[C@@H]1NC(=O)[C@@H]2CSSC[C@H](NC(=O)[C@H]([C@@H](C)O)NC(=O)[C@H](CCC(=O)O)NC(=O)CNC(=O)[C@H](Cc3c[nH]c4ccccc34)NC(=O)[C@H](CO)NC(=O)[C@H](CCCCN)NC(=O)[C@H](CCC(=O)O)NC1=O)C(=O)N[C@@H](CCCCN)C(=O)NCC(=O)N2 [Compound 14, WGETCKGCAEKS] (cyclo(AEKSWGETCKGC); disulfide 9-12) | improved ability to pass
6 | CC[C@H](C)[C@@H]1NC(=O)[C@H](CCCCN)NC(=O)[C@H](CCCCN)NC(=O)[C@H](CC(C)C)NC(=O)[C@H](CCC(=O)O)NC(=O)[C@H](CCCCN)NC(=O)[C@H](C(C)C)NC(=O)[C@H](CCCNC(=N)N)NC(=O)[C@H](CC(C)C)NC(=O)[C@H](CCCCN)NC(=O)[C@H](CCC(=O)O)NC(=O)[C@H](C)NC(=O)[C@@H]2CSSC[C@H](NC(=O)[C@H]([C@@H](C)O)NC(=O)[C@H](CCC(=O)O)NC(=O)CNC(=O)[C@H](Cc3c[nH]c4ccccc34)NC(=O)[C@H](CC(=O)O)NC(=O)[C@H](CC(=O)O)NC(=O)[C@H](CC(C)C)NC1=O)C(=O)N[C@@H](CCCCN)C(=O)NCC(=O)N2 [Compound 8] (cyclo(AEKLRVKELKKILDDWGETCKGC); disulfide 20-23) | improved ability to pass
7 | C[C@@H]1NC(=O)[C@@H]2CSSC[C@H](NC(=O)[C@H](CCC(=O)O)NC(=O)[C@H](CCC(=O)O)NC(=O)CNC(=O)[C@H](Cc3c[nH]c4ccccc34)NC(=O)[C@H]([C@@H](C)O)NC(=O)[C@H](CCCCN)NC(=O)[C@H](CCC(=O)O)NC1=O)C(=O)N[C@@H](CCCNC(=N)N)C(=O)N[C@@H](C)C(=O)N2 [Compound 12, WGEECRACAEKT] (cyclo(ACAEKTWGEECR); disulfide 2-11) | improved ability to pass
